Experiments:
[1] = biological target: human TYK2 (JH2domain-pseudokinase) (Homo sapiens (Human), UniProt P29597); assay: TYK2 JH2 Domain Binding Assay (KINOMEscan)
Procedure, shortened: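 Displacement of a DNA-tagged TYK2 JH2 fusion (human, aa G556–D888, HEK293 extract, <0.1 nM) from ligand-coated beads over 1 h at RT; binding buffer PBS/0.05% Tween 20/10 mM DTT/0.1% BSA.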

Tyk2 kinase domain (DH1) = Tyk2 kinase domain (DH1) (Homo sapiens (Human), UniProt P29597); assay: Tyk2 Radioactive Kinase Assay; assay type: biochemical; conditions: compound at 10 μM, ATP 10 μM; for inhibition at 10 µM: read-out: Tyk2 JH1% Inhibition @ 10 μM
Procedure, shortened: (§1)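 Compounds were tested at a single concentration of 10 μM in a radiometric kinase format against each isolated kinase domain. Activity is reported as percent inhibition at that concentration.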

JAK2 kinase domain (JH1) = JAK2 kinase domain (JH1) (Homo sapiens (Human), UniProt O60674); assay: JAK2 Radioactive Kinase Assay; assay type: biochemical; conditions: compound at 10 μM, ATP 10 μM; for inhibition at 10 µM: read-out: JAK2 JH1% Inhibition @ 10 μM
Procedure, shortened: as §1

Sequence of human TYK2 (JH2domain-pseudokinase) (P29597 556-888): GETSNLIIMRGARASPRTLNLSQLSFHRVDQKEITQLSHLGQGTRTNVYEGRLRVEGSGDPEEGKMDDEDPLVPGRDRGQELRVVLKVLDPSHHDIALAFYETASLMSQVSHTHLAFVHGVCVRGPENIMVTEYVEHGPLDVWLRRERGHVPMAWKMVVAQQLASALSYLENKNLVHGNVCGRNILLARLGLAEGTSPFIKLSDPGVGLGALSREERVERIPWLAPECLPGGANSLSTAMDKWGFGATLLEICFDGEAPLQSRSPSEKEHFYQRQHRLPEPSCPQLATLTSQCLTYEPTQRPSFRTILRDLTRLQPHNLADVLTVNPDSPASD
Sequence of JAK2 kinase domain (JH1) (O60674 849-1124): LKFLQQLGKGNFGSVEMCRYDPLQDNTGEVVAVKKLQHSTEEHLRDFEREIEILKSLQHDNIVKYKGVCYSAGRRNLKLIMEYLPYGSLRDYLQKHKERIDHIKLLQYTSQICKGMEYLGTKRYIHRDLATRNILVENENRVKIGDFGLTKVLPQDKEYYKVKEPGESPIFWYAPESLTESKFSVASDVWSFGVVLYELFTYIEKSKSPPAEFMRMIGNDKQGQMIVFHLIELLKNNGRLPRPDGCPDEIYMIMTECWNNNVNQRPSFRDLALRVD
Sequence of Tyk2 kinase domain (DH1) (P29597 897-1176): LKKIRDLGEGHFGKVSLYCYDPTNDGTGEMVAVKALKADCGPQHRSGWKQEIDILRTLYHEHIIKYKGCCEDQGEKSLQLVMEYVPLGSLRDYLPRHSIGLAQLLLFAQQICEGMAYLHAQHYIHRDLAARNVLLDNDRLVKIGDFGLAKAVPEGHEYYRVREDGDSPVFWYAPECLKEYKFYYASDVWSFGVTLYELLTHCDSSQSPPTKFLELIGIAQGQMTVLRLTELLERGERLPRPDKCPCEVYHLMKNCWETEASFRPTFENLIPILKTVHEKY

Compound	Kd [1] [nM]	inhibition at 10 µM (Tyk2 kinase domain (DH1)) [%]	inhibition at 10 µM (JAK2 kinase domain (JH1)) [%]	Tyk2 JH1% Inhibition @ 10 μM (Tyk2 kinase domain (DH1))	JAK2 JH1% Inhibition @ 10 μM (JAK2 kinase domain (JH1))
CNc1cc(Nc2cccn(CCOC3CC3)c2=O)nc2c(C(=O)N[C@@H]3CC[C@H]3O)cnn12 [I-472, 5-((1-(2-cyclopropoyethyl)-2-oxo-1,2-dihydropyridin-3-yl)amino)-N-(2-hydroxycyclobutyl)-7-(methylamino)pyrazolo[1,5-a]pyrimidine-3-carboxamide]	0.2 to 1	< 50	< 50	–	–
CNc1cc(Nc2cccn(CCOC3CC3)c2=O)nc2c(C(=O)N[C@@H]3CC[C@@H]3O)cnn12 [I-473]	0.2 to 1	< 50	< 50	–	–
CNc1cc(Nc2cccn([C@H]3CCCOC3)c2=O)nc2c(C(=O)N[C@@H]3C[C@@H]3F)cnn12 [I-475]	< 0.2	< 50	< 50	–	–
CNc1cc(Nc2cccnc2OC)nc2c(C(=O)NC(C)(C)C#N)cnn12 [I-476, N-(2-cyanopropan-2-yl)-5-((2-methoxypyridin-3-yl)amino)-7-(methylamino)-pyrazolo[1,5-a]pyrimidine-3-carboxamide]	< 0.2	< 50	< 50	–	–
CCCCn1cc(-c2cc(NC)n3ncc(C(=O)NC4CC4)c3n2)c2cccnc21 [I-477]	0.2 to 1	< 50	< 50	–	–
CCCCn1cc(-c2cc(NC)n3ncc(C(=O)N[C@@H]4C[C@@H]4F)c3n2)c2cccnc21 [I-478, 5-(1-butyl-1H-pyrrolo[2,3-b]pyridine-3-yl)-N-((1R,2S)-2-fluorocyclopropyl)-7-(methylamino)pyrazolo[1,5-a]pyrimidine-3-carboxamide]	0.2 to 1	< 50	< 50	–	–
CNc1cc(-c2nn(CCN3CCN(C)CC3)c3ncccc23)nc2c(C(=O)NC3CC3)cnn12 [I-479]	1 to 10	< 50	< 50	–	–
CNc1cc(-c2nn(CCN3CCN(C)CC3)c3ncccc23)nc2c(C(=O)N[C@H]3C[C@H]3F)cnn12 [I-480]	0.2 to 1	< 50	< 50	–	–
CNc1cc(Nc2cccc(N3CC[C@@H](OC)C3)n2)nc2c(C(=O)NC3CC3)cnn12 [I-481]	0.2 to 1	< 50	< 50	–	–
CNc1cc(Nc2cccc(N3CC[C@@H](OC)C3)n2)nc2c(C(=O)NC3CC3)cnn12 [I-482]	0.2 to 1	–	–	A (percent inhibition at 10 μM lower than 50)	A (percent inhibition at 10 μM lower than 50)
CNc1cc(Nc2cccnc2OC)nc2c(C(=O)NC[C@@H](C)CO)cnn12 [I-484]	< 0.2	< 50	< 50	–	–
CNc1cc(Nc2cccn([C@H]3CCC[C@@H]3OC)c2=O)nc2c(C(=O)N[C@@H]3C[C@@H]3F)cnn12 [I-485]	0.2 to 1	–	–	A (percent inhibition at 10 μM lower than 50)	A (percent inhibition at 10 μM lower than 50)
CNc1cc(Nc2cccn([C@@H]3CCC[C@H]3OC)c2=O)nc2c(C(=O)N[C@@H]3C[C@@H]3F)cnn12 [I-486]	0.2 to 1	< 50	< 50	–	–
CNc1cc(Nc2cccnc2OC)nc2c(C(=O)N[C@H]3CC[C@H](O)C3)cnn12 [I-487]	< 0.2	–	–	A (percent inhibition at 10 μM lower than 50)	A (percent inhibition at 10 μM lower than 50)
CNc1cc(Nc2cccnc2OC)nc2c(C(=O)N[C@@H]3CC[C@@H](O)C3)cnn12 [I-488]	< 0.2	< 50	< 50	–	–
CNc1cc(Nc2cccnc2OC2CC2)nc2c(C(=O)N[C@@H]3CC[C@@H](O)C3)cnn12 [I-490, 5-((2-cyclopropoxypyridin-3-yl)amino)-N-((1R,3R)-3-hydroxycyclopentyl)-7-(methylamino)pyrazolo[1,5-a]pyrimidine-3-carboxamide]	< 0.2	< 50	< 50	–	–
CNc1cc(Nc2cccn([C@H]3CCC[C@H]3OC)c2=O)nc2c(C(=O)NC3CC3)cnn12 [I-491]	1 to 10	< 50	< 50	–	–
CNc1cc(Nc2cccnc2OC2CC2)nc2c(C(=O)NC(C)(C)C#N)cnn12 [I-492, N-(2-cyanopropan-2-yl)-5-((2-cyclopropoxypyridin-3-yl)amino)-7-(methylamino)pyrazolo[1,5-a]pyrimidine-3-carboxamide]	< 0.2	< 50	< 50	–	–
[2H]C([2H])([2H])Oc1ncccc1Nc1cc(NC)n2ncc(C(=O)NC(C)(C)C#N)c2n1 [I-493, N-(2-cyanopropan-2-yl)-5-((2-(methoxy-d3)pyridin-3-yl)amino)-7-(methylamino)pyrazolo[1,5-a]pyrimidine-3-carboxamide]	0.2 to 1	< 50	< 50	–	–
CNc1cc(Nc2cc(F)cn(C3CCCOC3)c2=O)nc2c(C(=O)NC3CC3)cnn12 (stereo not drawn) [I-494]	0.2 to 1	< 50	< 50	–	–

Compound	Kd [1] [nM]	inhibition at 10 µM (Tyk2 kinase domain (DH1)) [%]	inhibition at 10 µM (JAK2 kinase domain (JH1)) [%]	Tyk2 JH1% Inhibition @ 10 μM (Tyk2 kinase domain (DH1))	JAK2 JH1% Inhibition @ 10 μM (JAK2 kinase domain (JH1))
CNc1cc(Nc2cccnc2OC)nc2c(C(=O)N[C@H]3CCC[C@H](O)C3)cnn12 [I-496]	< 0.2	< 50	< 50	–	–
CNc1cc(Nc2cccnc2OC)nc2c(C(=O)N[C@@H]3CCC[C@@H](O)C3)cnn12 [I-497]	< 0.2	–	–	A (percent inhibition at 10 μM lower than 50)	A (percent inhibition at 10 μM lower than 50)
[2H]C([2H])([2H])Oc1ncccc1Nc1cc(NC)n2ncc(C(=O)N[C@H]3CCC[C@H](O)C3)c2n1 [I-498]	< 0.2	–	–	A (percent inhibition at 10 μM lower than 50)	A (percent inhibition at 10 μM lower than 50)
[2H]C([2H])([2H])Oc1ncccc1Nc1cc(NC)n2ncc(C(=O)N[C@@H]3CC[C@@H](O)C3)c2n1 [I-501]	< 0.2	< 50	< 50	–	–
CNc1cc(Nc2cccn(C3=NC(C)(C)CS3)c2=O)nc2c(C(=O)NC3CC3)cnn12 [I-502]	0.2 to 1	< 50	< 50	–	–
CNc1cc(Nc2cccn(C3=NC(C)(C)CS3)c2=O)nc2c(C(=O)NC3CCC3)cnn12 [I-503]	0.2 to 1	< 50	< 50	–	–
CNc1cc(Nc2cccn(-c3nn(C)c(C)c3C)c2=O)nc2c(C(=O)NC3CC3)cnn12 [I-504]	0.2 to 1	< 50	< 50	–	–
CNc1cc(Nc2cccn(-c3nn(C)c(C)c3C)c2=O)nc2c(C(=O)N[C@@H]3C[C@@H]3F)cnn12 [I-505]	0.2 to 1	< 50	< 50	–	–
CNc1cc(Nc2cccn(C3CCCN(C)C3)c2=O)nc2c(C(=O)N[C@@H]3C[C@@H]3F)cnn12 (stereo partly drawn) [I-506]	< 0.2	< 50	< 50	–	–
CNc1cc(Nc2cccn([C@@H]3CCC[C@@H]3OC)c2=O)nc2c(C(=O)N[C@@H]3C[C@@H]3F)cnn12 [I-507]	0.2 to 1	< 50	< 50	–	–
CNc1cc(Nc2cccc(C3CCCOC3)n2)nc2c(C(=O)NC3CC3)cnn12 (stereo not drawn) [I-508]	0.2 to 1	< 50	< 50	–	–
CNc1cc(Nc2cccn(C3CCOCC3)c2=O)nc2c(C(=O)NCC(C)(C)CO)cnn12 [I-509]	< 0.2	< 50	< 50	–	–
CNc1cc(Nc2cccn([C@H]3CCCN(C)C3)c2=O)nc2c(C(=O)NC3CC3)cnn12 [I-511]	0.2 to 1	< 50	< 50	–	–
CNc1cc(Nc2cccn([C@@H]3CCCN(C)C3)c2=O)nc2c(C(=O)NC3CC3)cnn12 [I-512]	< 0.2	< 50	< 50	–	–
CNc1cc(Nc2cccn(CCOC3CC3)c2=O)nc2c(C(=O)N[C@@H]3CC[C@H]3O)cnn12 [I-513]	< 0.2	–	–	A (percent inhibition at 10 μM lower than 50)	A (percent inhibition at 10 μM lower than 50)
CNc1cc(Nc2cccn(CCOC3CC3)c2=O)nc2c(C(=O)N[C@H]3CC[C@@H]3O)cnn12 [I-514, 5-((1-(2-cyclopropoxyethyl)-2-oxo-1,2-dihydropyridin-3-yl)amino)-N-((1 S,2S)-2-hydroxycyclobutyl)-7-(methylamino)pyrazolo[1,5-a]pyrimidine-3-carboxamide]	1 to 10	< 50	< 50	–	–
CNc1cc(Nc2cccn(CCOC3CC3)c2=O)nc2c(C(=O)N[C@@H]3CC[C@@H]3O)cnn12 [I-516]	1 to 10	–	–	A (percent inhibition at 10 μM lower than 50)	A (percent inhibition at 10 μM lower than 50)
CNc1cc(-c2nn([C@@H]3CCOC3)c3ncccc23)nc2c(C(=O)N[C@@H]3C[C@@H]3F)cnn12 [I-517]	0.2 to 1	< 50	< 50	–	–
CNc1cc(-c2nn([C@H]3CCOC3)c3ncccc23)nc2c(C(=O)N[C@@H]3C[C@@H]3F)cnn12 [I-518]	0.2 to 1	< 50	< 50	–	–
CNc1cc(Nc2cccn(C3=NC(C)(C)CS3)c2=O)nc2c(C(=O)N[C@@H]3C[C@@H]3F)cnn12 [I-526]	0.2 to 1	< 50	< 50	–	–

Reference: patent US10508120B2, “TYK2 inhibitors and uses thereof” (Nimbus Lakshmi, Inc., priority 2017, dated 2019)
